Assay results from patent US20160220569A1, “CDK4/6 Inhibitor Dosage Formulations For The Protection Of Hematopoietic Stem And Progenitor Cells During Chemotherapy” (G1 Therapeutics, Inc., priority 2015, published 2016).
Where “and” joins values, the source holds several entries; their conditions need not be identical. Equal entries are not always repeated. Where two headings read alike, the source gives them in different places.

Assay: Topotecan PK following Compound 1 infusion
Assay type: in vivo, human
Settings: human, plasma, intravenous
Procedure: Blood samples were obtained prior to dosing, at the end of the 30-minute infusion (EOI), and at 0.5, 1, 1.5, 2, 2.5, 4, 6, 8, and 24 hours after the end of infusion. Analysis of plasma concentration versus time data for calculation of standard pharmacokinetic (PK) parameters following intravenous infusion administration was conducted using Phoenix WinNonlin version 6.3 using a nominal infusion duration and scheduled blood sampling times. In Cohort 2 there were 3 subjects who received 1.25 mg/m^2 of topotecan once daily on Days 1 to 5. In Cohort 3 there were 4 subjects who received 0.75 mg/m^2 of topotecan once daily on Days 1 to 5.

`CC[C@@]1(O)C(=O)OCc2c1cc1n(c2=O)Cc2cc3c(CN(C)C)c(O)ccc3nc2-1.Cl` [topotecan, (S)-10-[(dimethylamino)methyl]-4-ethyl-4,9-dihydroxy-1H-pyrano[3′,4′:6,7]indolizino[1,2-b]quinoline-3,14(4H,12H)-dione monohydrochloride] showed a Cmax (Topotecan 0.75 mg/m^2 (Cohort 3) with Compound 1 200 mg/m^2, Day 1, Mean, read-out: Cmax) of 27.3 ng/mL, a half-life (Topotecan 0.75 mg/m^2 (Cohort 3) with Compound 1 200 mg/m^2, Day 1, Mean, read-out: t½ (converted)) of 4.33 h and an AUC (Topotecan 0.75 mg/m^2 (Cohort 3) with Compound 1 200 mg/m^2, Day 1, Median, read-out: AUC24.5) of 89.1 ng·h/mL. The AUC(0-inf) (Topotecan 0.75 mg/m^2 (Cohort 3) with Compound 1 200 mg/m^2, Day 1, Median, read-out: AUCinf (converted)) was 90.8 ng·h/mL and 0.198 µM·h, the AUC (Topotecan 0.75 mg/m^2 (Cohort 3) with Compound 1 200 mg/m^2, Day 1, Median, read-out: AUCx5 (converted)) was 0.992 µM·h and the Cmax (Topotecan 0.75 mg/m^2 (Cohort 3) with Compound 1 200 mg/m^2, Day 1, Median, read-out: Cmax) was 26.4 ng/mL. For the same molecule, the half-life (Topotecan 0.75 mg/m^2 (Cohort 3) with Compound 1 200 mg/m^2, Day 1, Median, read-out: t½ (converted)) was 4.3 h, the AUC (Topotecan 0.75 mg/m^2 (Cohort 3) with Compound 1 200 mg/m^2, Day 1, individual subjects, read-out: AUC24.5) was 83.5 ng·h/mL and the AUC(0-inf) (Topotecan 0.75 mg/m^2 (Cohort 3) with Compound 1 200 mg/m^2, Day 1, individual subjects, read-out: AUCinf (converted)) was 84.8 ng·h/mL and 0.185 µM·h. For the same molecule, the AUC (Topotecan 0.75 mg/m^2 (Cohort 3) with Compound 1 200 mg/m^2, Day 1, individual subjects, read-out: AUCx5 (converted)) was 0.927 µM·h, the half-life (Topotecan 0.75 mg/m^2 (Cohort 3) with Compound 1 200 mg/m^2, Day 1, individual subjects, read-out: t½ (converted)) was 4.32 h and the AUC (Topotecan 0.75 mg/m^2 (Cohort 3) with Compound 1 200 mg/m^2, Day 4, Mean, read-out: AUCτ (converted)) was 92.4 ng·h/mL and 0.202 µM·h. For the same molecule, the Cmax (Topotecan 0.75 mg/m^2 (Cohort 3) with Compound 1 200 mg/m^2, Day 4, Mean, read-out: Cmax) was 24.5 ng/mL, the half-life (Topotecan 0.75 mg/m^2 (Cohort 3) with Compound 1 200 mg/m^2, Day 4, Mean, read-out: t½ (converted)) was 4.78 h and the AUC (Topotecan 0.75 mg/m^2 (Cohort 3) with Compound 1 200 mg/m^2, Day 4, Median, read-out: AUCτ (converted)) was 91.7 ng·h/mL and 0.2 µM·h. For the same molecule, the Cmax (Topotecan 0.75 mg/m^2 (Cohort 3) with Compound 1 200 mg/m^2, Day 4, Median, read-out: Cmax) was 24.5 ng/mL, the half-life (Topotecan 0.75 mg/m^2 (Cohort 3) with Compound 1 200 mg/m^2, Day 4, Median, read-out: t½ (converted)) was 4.7 h and the AUC (Topotecan 0.75 mg/m^2 (Cohort 3) with Compound 1 200 mg/m^2, Day 4, individual subjects, read-out: AUCτ (converted)) was 83.7 ng·h/mL and 0.183 µM·h. For the same molecule, the Cmax (Topotecan 0.75 mg/m^2 (Cohort 3) with Compound 1 200 mg/m^2, Day 4, individual subjects, read-out: Cmax) was 26.4 ng/mL, the half-life (Topotecan 0.75 mg/m^2 (Cohort 3) with Compound 1 200 mg/m^2, Day 4, individual subjects, read-out: t½ (converted)) was 4.63 h and the AUC (Topotecan 1.25 mg/m^2 (Cohort 2) with Compound 1 200 mg/m^2, Day 1, Mean, read-out: AUC24.5) was 175 ng·h/mL. The AUC(0-inf) (Topotecan 1.25 mg/m^2 (Cohort 2) with Compound 1 200 mg/m^2, Day 1, Mean, read-out: AUCinf (converted)) was 180 ng·h/mL and 0.392 µM·h, the AUC (Topotecan 1.25 mg/m^2 (Cohort 2) with Compound 1 200 mg/m^2, Day 1, Mean, read-out: AUCx5 (converted)) was 1.97 µM·h and the Cmax (Topotecan 1.25 mg/m^2 (Cohort 2) with Compound 1 200 mg/m^2, Day 1, Mean, read-out: Cmax) was 63.7 ng/mL. The half-life (Topotecan 1.25 mg/m^2 (Cohort 2) with Compound 1 200 mg/m^2, Day 1, Mean, read-out: t½ (converted)) was 4.93 h, the AUC (Topotecan 1.25 mg/m^2 (Cohort 2) with Compound 1 200 mg/m^2, Day 1, Median, read-out: AUC24.5) was 159 ng·h/mL and the AUC(0-inf) (Topotecan 1.25 mg/m^2 (Cohort 2) with Compound 1 200 mg/m^2, Day 1, Median, read-out: AUCinf (converted)) was 162 ng·h/mL and 0.355 µM·h. It also gave an AUC (Topotecan 1.25 mg/m^2 (Cohort 2) with Compound 1 200 mg/m^2, Day 1, Median, read-out: AUCx5 (converted)) of 1.77 µM·h, a Cmax (Topotecan 1.25 mg/m^2 (Cohort 2) with Compound 1 200 mg/m^2, Day 1, Median, read-out: Cmax) of 57.7 ng/mL and a half-life (Topotecan 1.25 mg/m^2 (Cohort 2) with Compound 1 200 mg/m^2, Day 1, Median, read-out: t½ (converted)) of 4.92 h. For the same molecule, the half-life (Topotecan 1.25 mg/m^2 (Cohort 2) with Compound 1 200 mg/m^2, Day 1, individual subjects, read-out: t½ (converted)) was 4.78 h, the AUC (Topotecan 1.25 mg/m^2 (Cohort 2) with Compound 1 200 mg/m^2, Day 4, Mean, read-out: AUCτ (converted)) was 171 ng·h/mL and 0.375 µM·h and the Cmax (Topotecan 1.25 mg/m^2 (Cohort 2) with Compound 1 200 mg/m^2, Day 4, Mean, read-out: Cmax) was 59.6 ng/mL. The AUC (Topotecan 1.25 mg/m^2 (Cohort 2) with Compound 1 200 mg/m^2, Day 4, Median, read-out: AUCτ (converted)) was 158 ng·h/mL and 0.345 µM·h, the Cmax (Topotecan 1.25 mg/m^2 (Cohort 2) with Compound 1 200 mg/m^2, Day 4, Median, read-out: Cmax) was 41.8 ng/mL and the half-life (Topotecan 1.25 mg/m^2 (Cohort 2) with Compound 1 200 mg/m^2, Day 4, Median, read-out: t½ (converted)) was 5.39 h. The AUC (Topotecan 1.25 mg/m^2 (Cohort 2) with Compound 1 200 mg/m^2, Day 4, individual subjects, read-out: AUCτ (converted)) was 158 ng·h/mL and 0.345 µM·h, the half-life (Topotecan 1.25 mg/m^2 (Cohort 2) with Compound 1 200 mg/m^2, Day 4, individual subjects, read-out: t½ (converted)) was 5.39 h and the AUC (Topotecan […]^2 (Cohort 1) with Compound 1 200 mg/m^2, Day 1, Mean, read-out: AUC24.5) was 150 ng·h/mL. For the same molecule, the AUC (Topotecan […]^2 (Cohort 1) with Compound 1 200 mg/m^2, Day 1, Mean, read-out: AUCx5 (converted)) was 1.66 µM·h, the Cmax (Topotecan […]^2 (Cohort 1) with Compound 1 200 mg/m^2, Day 1, Mean, read-out: Cmax) was 69.5 ng/mL and the half-life (Topotecan […]^2 (Cohort 1) with Compound 1 200 mg/m^2, Day 1, Mean, read-out: t½ (converted)) was 4.33 h. For the same molecule, the AUC (Topotecan […]^2 (Cohort 1) with Compound 1 200 mg/m^2, Day 1, Median, read-out: AUC24.5) was 150 ng·h/mL, the AUC (Topotecan […]^2 (Cohort 1) with Compound 1 200 mg/m^2, Day 1, Median, read-out: AUCx5 (converted)) was 1.66 µM·h and the Cmax (Topotecan […]^2 (Cohort 1) with Compound 1 200 mg/m^2, Day 1, Median, read-out: Cmax) was 69.5 ng/mL. It also gave a half-life (Topotecan […]^2 (Cohort 1) with Compound 1 200 mg/m^2, Day 1, Median, read-out: t½ (converted)) of 4.33 h, an AUC (Topotecan […]^2 (Cohort 1) with Compound 1 200 mg/m^2, Day 1, individual subjects, read-out: AUC24.5) of 130 ng·h/mL and an AUC (Topotecan […]^2 (Cohort 1) with Compound 1 200 mg/m^2, Day 1, individual subjects, read-out: AUCx5 (converted)) of 1.44 µM·h. The half-life (Topotecan […]^2 (Cohort 1) with Compound 1 200 mg/m^2, Day 1, individual subjects, read-out: t½ (converted)) was 4.56 h, the Cmax (Topotecan […]^2 (Cohort 1) with Compound 1 200 mg/m^2, Day 4, Mean, read-out: Cmax) was 89.3 ng/mL and the half-life (Topotecan […]^2 (Cohort 1) with Compound 1 200 mg/m^2, Day 4, Mean, read-out: t½ (converted)) was 4.87 h. For the same molecule, the Cmax (Topotecan […]^2 (Cohort 1) with Compound 1 200 mg/m^2, Day 4, Median, read-out: Cmax) was 89.3 ng/mL, the half-life (Topotecan […]^2 (Cohort 1) with Compound 1 200 mg/m^2, Day 4, Median, read-out: t½ (converted)) was 4.87 h and the half-life (Topotecan […]^2 (Cohort 1) with Compound 1 200 mg/m^2, Day 4, individual subjects, read-out: t½ (converted)) was 5.11 h. The AUC(0-inf) (topotecan 0.75 mg/m^2 (Cohort 3) after Compound 1 200 mg/m^2, Day 1, mean, read-out: AUCinf averaged) was 94.4 ng·h/mL, the Cmax (topotecan 0.75 mg/m^2 (Cohort 3) after Compound 1 200 mg/m^2, Day 1, mean, read-out: Cmax averaged) was 27.3 ng/mL and the half-life (topotecan 0.75 mg/m^2 (Cohort 3) after Compound 1 200 mg/m^2, Day 1, mean, read-out: Half-lives averaged (converted)) was 4.33 h. For the same molecule, the Cmax (topotecan 0.75 mg/m^2 (Cohort 3) after Compound 1 200 mg/m^2, Day 4, mean, read-out: Cmax averaged) was 24.5 ng/mL, the AUC(0-inf) (topotecan 1.25 mg/m^2 (Cohort 2) after Compound 1 200 mg/m^2, Day 1, mean, read-out: AUCinf averaged) was 180 ng·h/mL and the Cmax (topotecan 1.25 mg/m^2 (Cohort 2) after Compound 1 200 mg/m^2, Day 1, mean, read-out: Cmax averaged) was 63.7 ng/mL. For the same molecule, the half-life (topotecan 1.25 mg/m^2 (Cohort 2) after Compound 1 200 mg/m^2, Day 1, mean, read-out: Half-lives averaged (converted)) was 4.93 h, the Cmax (topotecan 1.25 mg/m^2 (Cohort 2) after Compound 1 200 mg/m^2, Day 4, mean, read-out: Cmax averaged) was 59.6 ng/mL and the AUC(0-inf) (topotecan […]^2 (Cohort 1) after Compound 1 200 mg/m^2, Day 1, mean, read-out: AUCinf averaged) was 152 ng·h/mL. The Cmax (topotecan […]^2 (Cohort 1) after Compound 1 200 mg/m^2, Day 1, mean, read-out: Cmax averaged) was 69.5 ng/mL, the half-life (topotecan […]^2 (Cohort 1) after Compound 1 200 mg/m^2, Day 1, mean, read-out: Half-lives averaged (converted)) was 4.33 h and the Cmax (topotecan […]^2 (Cohort 1) after Compound 1 200 mg/m^2, Day 4, mean, read-out: Cmax averaged) was 89.3 ng/mL. For the same molecule, the half-life (read-out: t½ (converted)) was 5.45 h.
